Results: US9265268B2, “Method of handling bananas” (priority 2009, dated 2016)

Tests used:
Assay type in all cases: in vivo, Musa
[1] = test system: bananas; assay: Example 2A: evaluation process A (4 days post-MCP in bag at 14° C., then 7 days at approx. 22° C.); details: for Color Stage (mean) / Sugar Spots (mean %): 4 days in bag at 14° C., then 7 days at approx. 22° C.
From the text: The color of banana peels is rated according to a seven stage rating scale: stage 1 (dark green); stage 2 (all light green); stage 3 (half green and half yellow); stage 4 (more yellow than green); stage 5 (green tips and necks); stage 6 (all yellow; maybe light green necks, no green tips); stage 7 (yellow flecked with brown). Consumers generally prefer to eat bananas in stage 5 or stage 6.
(§1) Bananas were harvested at 13 weeks of age. Fruit bunches were separated into hands, then washed, and excess latex was removed in chlorinated water tanks using standard commercial practices. The washed hands of bananas were further broken into clusters and treated with fungicide. Clusters were placed into plastic bags; each bag held approximately 1.4 kg (3 lbs) of bananas. The bananas remained in these bags until they were removed for evaluation (see below).
The plastic bags were either T bags or were modified-atmosphere bags (“MAP” bags). The T bags (also called “PE bags” herein) were typical of bags normally used in commerce for bananas. The bags were then placed into cartons. Each carton held 13 bags. Each carton either held MAP bags only or else held PE bags only. 20 cartons of MAP bags and 20 cartons of PE bags were prepared.
The cartons were placed in a refrigerated truck and transported to a storage facility. The distance from harvest to storage was approximately 100 km. The temperature in the refrigerated truck was 14 to 18° C. To simulate the effect of shipping over long distances, the cartons were placed in conventional cold storage room at 14° C. for two weeks. In storage, the cartons were placed so that air could circulate between and around each carton.
After the storage period, the thermostat of the holding room was raised to 18° C., and no further action was taken until the holding room was at 18° C. for 12 hours. Bananas were ripened using a 5-day schedule, as follows. The temperatures shown are pulp temperatures; if necessary, the thermostat was lowered so that pulp temperature remained at the desired temperature despite any respiration that may be taking place in the bananas.
On day 5 at approximately 4 pm, the cartons were divided in to seven groups: one untreated control (“UTC”) group (6 cartons) and six treatment groups. Each group had equal number of PE cartons and MAP cartons. The six treatment groups were as follows:
UTC cartons were placed in a shed that had good ventilation. The remaining cartons remained in the holding room. Four airtight tents were erected in the holding room. Each tent held all the cartons for one of the treatment groups PE-3-C, PE-10-C, MAP-3, and MAP-10.
(§2) At day 5 at approximately 4 pm, the bananas had reached color stage 2.5 to 3.5. Treatment groups PE-3-C, PE-10-C, MAP-3, and MAP-10 were then exposed to 1-MCP overnight at the concentrations shown above.
Some of the bananas from each group described in Example 2 were evaluated by process “A” as follows: After treatment groups PE-3-C, PE-10-C, MAP-3, and MAP-10 received exposure to 1-MCP, the bananas remained in their bags in the holding room at 14° C. for 4 days; then the bananas were removed from the bags and stored at approximately 22° C. for 7 days; then the bananas were evaluated.

[2] = test system: bananas; assay: Example 2B: evaluation process B (3 days post-MCP); details: MAP-3 and MAP-10 groups (MAP bag, 300 or 1000 ppb 1-MCP); 3 days in bag at 14° C.
From the text: as §1, §2
This Example was the same as Example 2A, except that after exposure to 1-MCP, the bananas remained in their bags in the holding room at 14° C. for 3 days instead of 4 days.

[3] = test system: bananas; assay: Example US-1: bananas transferred to MAP after shipment
From the text: Bananas were harvested and shipped in to Ephrata, Pa., using standard commercial practices, in standard commercial shipping bags. For shipping, bags were placed in cartons; each carton held sufficient bags so that there were approximately 18.1 kg (40 lb.) of bananas in each carton.
After arrival in Ephrata, Pa., bananas were removed from the bags in which they were shipped and placed into new bags, which were either MAP (as described above) or T-bags (as described above). The new bags held approximately 1.3 kg (3 lb.) each. The new bags were twisted and secured shut. Bags were exposed to the 5-day ripening method used in Example 2 above. After ripening, the bags were transported to Spring House, Pa. in a refrigerated truck. Upon arrival, color stage of the bananas was 3.5 to 4.5. Bags were then placed into sealed tents for 12 hours at 13.3° C. […] After that 12-hour period, samples were aired for 1 hour and then kept in place at 13.3° C. (56° F.) for 10 hours and then transferred to an evaluation room, which was maintained at 17.8° C. (64° F.).
All bags remained in the evaluation room for 8 days. Bananas were visually inspected each day, whether they were still in bags or not. The bags were divided into three groups: • A. remained in the bags for 3 days, then removed from the bags for the remaining 5 days; • B. remained in the bags for 4 days, then removed from the bags for the remaining 4 days. • C. remained in the bags for 8 days, then removed on the eighth day for evaluation.

[4] = test system: bananas; assay: Example US-4: placement into MAP after exposure to 1-MCP; details: 1000 ppb, Day #8
From the text: Bananas were harvested and shipped to Ephrata, Pa. as in Example US-1 above. The bananas were also ripened as in Example US-1, except that the bananas remained in the bags in which they were shipped (poly liners) throughout the ripening process. Some of the poly liners were exposed to 1-MCP (1000 ppb) as in Example US-1 above, while others were not. Immediately after the conclusion of the exposure to 1-MCP, bananas were removed from the poly liners, divided into bunches. Some bunches had approximately of 1.4 kg (3 lb) and were placed into T-bags as described above. Other bunches were approximately 18 kg (40 lb) and were placed into MAP type D-40 as described above, using standard layering technique that interposes layers of the bag in between layers of bananas. Then the bananas were stored and evaluated as in Example US-1. Also, the bananas were eaten, and the firmness of the pulp was evaluated along with the overall quality of the eating experience.

[5] = MAP-10: MAP bag, 1000 ppb 1-MCP
[6] = PE-10-C: PE bag, 1000 ppb 1-MCP

## CC1=CC1 [1-MCP, 1-methylcyclopropene]
[1]; MAP-3: MAP bag, 300 ppb 1-MCP
  Comments (additional observations): Fruit with excellent bright yellow color. Only high
  Delay in sugar spot development longer than MAP-0: at least three
  Color Stage (mean): 6.3
  Sugar Spots (mean %): 3%
[1]; [5]
  Comments (additional observations): Almost all fruit was at the right color for sale,
  Delay in sugar spot development longer than MAP-0: at least three
  Color Stage (mean): 6.1
  Sugar Spots (mean %): 2%
[1]; PE-3-C: PE bag, 300 ppb 1-MCP
  Comments (additional observations): Some fruit was in a good color stage. However most
  Color Stage (mean): 6.8
  Sugar Spots (mean %): 35%
[1]; [6]
  Comments (additional observations): Some fruit was in a good color stage. However most
  Color Stage (mean): 6.9
  Sugar Spots (mean %): 73%
[2]
  color and sugar spots versus comparative examples: same type of improvements over the comparative examples as in Example 2A
[3]; 1000 ppb versus 300 ppb 1-MCP in the same type of bag
  development of color and sugar spots: slower development of color and sugar spots
[3]; MAP with non-zero 1-MCP
  extension of shelf life, compared to T bags with no 1-MCP: 8 days
[3]; MAP, 300 ppb or 1000 ppb 1-MCP versus MAP with zero 1-MCP
  development of color and sugar spots after removal from bags: slower development of color and sugar spots
[3]; MAP, 300 ppb or 1000 ppb 1-MCP versus T-bags
  development of color and sugar spots: much slower development of color and sugar spots
[3]; T-bags, 300 ppb or 1000 ppb 1-MCP versus zero
  development of color and sugar spots: slower development of color and sugar spots
[4]; 1-MCP only (T-bag)
  Average color stage: 4.71
  Average sugar spot rating: 3
  eating experience: mediocre
  pulp: soft
[4]; MAP (type D-40) and 1-MCP
  Average color stage: 4.42
  Average sugar spot rating: 1
  eating experience: excellent
  pulp: firm
